Several values for one entry are separate records, joined by “and”; a condition that tells them apart may be missing. Identical values can stand only once. Entries after “also recorded” stand apart in the source; their conditions may differ. Like-named read-outs stand apart in the source and are kept apart here.
Key:
[1] = test system: SGR-feo-NS3-5B(Con1) sub-genomic replicon; assay: luciferase assay in Huh7.5 cells stably harbouring SGR-feo-NS3-5B(Con1), independent of NS2; assay type: cell-based, Hepatitis C virus; conditions: 10 μM, Huh7.5 stable cells
Method: (§1) Selection and maintenance of Huh7.5 cells stably harbouring SGR-feo-NS3-5B ([Wyles et al., 2009], [Wyles et al., 2007]) or SGR-feo-NS2-5B derived from JFH-1 (genotype 2a) and Con1 (genotype 1b) has previously been reported ([Shaw et al., 2015]). Cells were maintained in Dulbecco's modified Eagle's medium (DMEM) supplemented with 10% FBS, 100 IU penicillin ml^−1, 100 μg streptomycin ml^−1, 1% non-essential amino acids and 300 μg/ml G418 in a humidified incubator at 37 °C in 5% CO2. For screening, 2 × 10^4 cells/well were seeded in a 96-well plate in the absence of G418 and compounds were added to 10 μM final concentration by dilution from DMSO stocks. At 72 h, cells were washed in PBS and lysed in 30 μl/well Passive Lysis Buffer (PLB: Promega). Luciferase activity was quantified by automated addition of 40 μl LarI reagent (Promega) and light emission recorded over 6 s using a BMG Labtech Fluostar plate reader. Statistical significance was determined using the Student's t test.
(§2) Additionally, compounds were tested for the ability to specifically perturb NS2-dependent HCV genome replication in a cell-based assay. Compounds were tested against cells stably harbouring a HCV sub-genomic replicon (SGR) comprising either NS2-5B or NS3-5B with a firefly luciferase-neomycin phosphotransferase reporter ([Shaw et al., 2015], [Wyles et al., 2009], [Wyles et al., 2007]). […]

[2] = test system: Huh7.5 cells; assay: cytotoxicity at 25 μM in Huh7.5 cells, MTT or ATPlite assay; assay type: cell-based; conditions: 48 h
Method: (§3) For cytotoxicity assay, media was removed and cells were incubated in 1 mM thiazolyl blue tetrazolium bromide (MTT) for >2 h. MTT crystals were resuspended in 100 μl DMSO and absorbance at 570 nm quantified using an infinite F50 plate reader (Tecan). Alternatively, cytotoxicity was analysed using the ATPLite kit following the manufacturer's instructions, with light emission quantified using a BMG Labtech Fluostar plate reader.

[3] = test system: SGR-feo-NS2-5B(Con1) sub-genomic replicon, genotype 1b; assay: luciferase assay in Huh7.5 cells stably harbouring SGR-feo-NS2-5B(Con1); assay type: cell-based, Hepatitis C virus; conditions: 10 μM, Huh7.5 stable cells, p = 0.0006
Method: as §1, §2

[4] = test system: Huh7.5 cells; assay: cell viability by MTT in Huh7.5 cells electroporated with Jc1-NLuc; assay type: cell-based; conditions: Jc1-NLuc electroporated Huh7.5, 48 h.p.e.; read-out: Cell viability, MTT CC50, individual experiment
Method: as §3
(§4) For HCVcc experiments, 5 μg of Jc1-NLuc ([Amako et al., 2015]) transcript was electroporated into Huh7.5 cells and treated with compound as described in Section 2.5. Cytotoxicity or NanoLuc (NLuc) activity was measured at 48 h incubation with compound. Cells were lysed as in Section 2.4. Following the addition of 50 μl/well Nano-Glo Luciferase Assay Substrate (Promega) light emission was recorded using a BMG Labtech Fluostar plate reader and data analysed as in Section 2.5.

[5] = as above; assay type: cell-based; conditions: human, Jc1-NLuc electroporated Huh7.5, 48 h.p.e.
Method: as §3, §4

[6] = test system: Huh7.5 cells; assay: cell viability by MTT in Huh7.5 cells electroporated with SGR-luc-NS2-5B(JFH-1); assay type: cell-based; conditions: for CC50: MTT, Huh7.5, 48 h.p.e., single experiments in duplicate, read-out: Cell viability CC50, individual experiment
Method: as §3
(§5) Firefly luciferase was measured as in Section 2.4. Data was normalised to DMSO controls and EC50/CC50 determined using Prism 6 (GraphPad).

[7] = as above; assay type: cell-based; conditions: human, Huh7.5 cells electroporated with SGR-luc-NS2-5B(JFH-1); for CC50 at 48 h: MTT, Huh7.5, 48 h.p.e., Fig. 2D, read-out: Cell viability CC50, across experimental repeats
Method: as §3, §5

[8] = molecular target: T1, NS2 autoprotease (NS2-NS3-FLAG, JFH-1 isolate, genotype 2a) (Hepatitis C virus genotype 2a, UniProt Q99IB8); assay: in vitro NS2 autoprotease assay: recombinant NS2-NS3-FLAG proteolysis, NS3-FLAG product quantified by western blot; assay type: biochemical; conditions: 16 h
T1 construct: made in house
T1 sequence (Q99IB8 908-1210): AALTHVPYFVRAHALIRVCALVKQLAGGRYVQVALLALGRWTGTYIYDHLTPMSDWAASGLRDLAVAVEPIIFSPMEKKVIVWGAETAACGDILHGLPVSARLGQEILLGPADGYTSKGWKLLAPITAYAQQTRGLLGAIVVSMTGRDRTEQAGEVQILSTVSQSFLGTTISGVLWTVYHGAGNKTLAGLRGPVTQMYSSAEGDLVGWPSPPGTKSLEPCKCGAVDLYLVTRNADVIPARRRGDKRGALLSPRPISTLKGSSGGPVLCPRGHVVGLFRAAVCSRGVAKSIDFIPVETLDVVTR
Method: NS2-NS3-FLAG (JFH-1 isolate, genotype 2a) was purified, and proteolysis reactions were performed as previously described ([Shaw et al., 2015]). Compounds were added to reactions prior to addition of NS2-NS3-FLAG by dilution from DMSO stocks (final DMSO 0.75%). Reactions were incubated at room temperature for 16 h, terminated by addition of Laemmli buffer and the NS3-FLAG proteolysis product quantified by western blot using M2 anti-FLAG monoclonal antibody (Sigma Aldrich) and IRDye 680RD Donkey anti-Mouse (LI-COR Biosciences) on an Odyssey imager (LI-COR). NS3-FLAG was normalised to DMSO control and a non-linear regression fitted with Prism 6 (GraphPad) to determine 50% effective concentration (EC50).
Firstly, compounds were tested for the ability to block production of a substrate product of the NS2 autoprotease in an in vitro assay. This assay, using a recombinant NS2-NS3-FLAG precursor purified under denaturing conditions, measured NS2 autoprotease activity using quantitative western blot to monitor a proteolysis product (NS3-FLAG) ([Foster et al., 2010], [Shaw et al., 2015], [Tedbury and Harris, 2007]).

[9] = cell viability by ATPLite in SGR-feo-NS2-5B(JFH-1) harbouring Huh7.5 cells; assay type: cell-based; conditions: human, Huh7.5 cells harbouring SGR-feo-NS2-5B(JFH-1) replicon
Method: as §3, §5

[10] = test system: SGR-luc-NS2-5B(JFH-1) sub-genomic replicon; assay: transient replication assay: SGR-luc-NS2-5B(JFH-1) RNA electroporated into Huh7.5 cells, luciferase; assay type: cell-based, Hepatitis C virus
Method: For transient SGR experiments, in vitro transcripts (2 μg) of firefly luciferase-containing SGR were electroporated into 4 × 10^6 Huh7.5 cells ([Blight et al., 2002]) or Huh7 cells at 950 μF and 270 V. 2 × 10^4 cells/well were seeded in a 96 well plate. At 4 h post electroporation (h.p.e.) media was replaced with media containing compounds.
as §5

[11] = test system: Jc1-NLuc (genotype 2a chimeric Jc1, infectious HCV); assay: HCVcc assay: Jc1-NLuc RNA electroporated into Huh7.5 cells, NanoLuc activity; assay type: cell-based, Hepatitis C virus
Method: as §4

[12] = test system: NS5A; assay: western blot for NS5A in lysates of SGR-luc-NS2-5B(JFH-1) electroporated Huh7.5 cells; assay type: cell-based, Hepatitis C virus; conditions: 52 h.p.e.
Method: 2 × 10^6 cells were seeded in a 10 cm dish and incubated as indicated. Cells were washed in PBS and lysed in 100 μl PLB. Clarified lysates were analysed by 15% SDS-PAGE and western blot. Anti-GAPDH (Abcam) (1:20,000) or anti-NS5A ([Macdonald et al., 2003]) (1:5000) were followed by IRDye 680RD Donkey anti-Mouse or IRDye 800CW Donkey anti-Rabbit (LI-COR BioSciences) (1:10,000) respectively. Imaging was performed using an Odyssey Imager (LI-COR).

[13] = test system: SGR-feo-NS2-5B(JFH-1) sub-genomic replicon; assay: luciferase assay in Huh7.5 cells stably harbouring SGR-feo-NS2-5B(JFH-1); assay type: cell-based, Hepatitis C virus; conditions: Huh7.5, 48 h
Method: as §1, §5
Additionally, compounds were tested for the ability to specifically perturb NS2-dependent HCV genome replication in a cell-based assay. […]

[14] = 10-point dose response, in vitro proteolysis, * mean ± SD of three experimental repeats, read-out: JFH1 NS2-3 EC50
[15] = Hepatitis C virus, Huh7.5, transient SGR-luc-NS2-5B(JFH-1), Huh7.5, 4-48 h.p.e., Fig. 2D, read-out: NS2-5B SGR EC50, mean ± SD across experimental repeats
[16] = transient SGR-luc-NS2-5B(JFH-1), Huh7.5, 48 h.p.e., single experiments in duplicate, read-out: NS2-5B SGR EC50, individual experiment

Q: Which results are given for `CC1(C(=O)N2CCC3(CC2)c2ccccc2[C@@H](N)[C@@H]3O)CCCCC1` [Compound 160, (2R, 3R)-3-amino-1′-[(1-methylcyclohexyl)carbonyl]-2,3,dihydrospiro[indene-1,4′-piperidine]-2-ol]?
A: luciferase activity relative to DMSO control, SGR-feo-NS3-5B(Con1) [1]: no effect; also recorded: without affecting luciferase activity; cytotoxicity at 25 μM [2]: no observed cytotoxicity; luciferase activity relative to DMSO control, SGR-feo-NS2-5B(Con1) [3]: significantly reduced; also recorded: reduces luciferase activity; CC50 [4]: 81.2 µM and 155 µM; CC50 at 48 h ([5]; mean ± SD of three experiments, read-out: Cell viability, MTT CC50, mean): 110 ± 40 µM; CC50 at 48 h ([5]; read-out: Cell viability, MTT CC50, individual experiment): 93 µM; concentration at which modest cytotoxic effects were observed [6]: ≥ 95 µM; CC50 [6]: > 100 µM; viability at 300 µM ([7]; 300 μM, read-out: cell viability at maximal attainable concentration): 40%; CC50 at 48 h [7]: > 100 µM; EC50 [8, 14]: 44.6 ± 6.2 µM; EC50 ([8]; Fig. 1B dose response, read-out: EC50, reduction of NS3-FLAG product in the in vitro NS2 autoprotease assay): 39 µM; CC50 at 48 h [9]: > 100 µM; luciferase activity time course relative to DMSO control ([10]; 160 at 25 μM, added 4 h.p.e., read every 4 h for 48 h): reduction in luciferase activity and a lag in detectable luciferase activity; selectivity index ([10]; CC50/EC50, transient SGR, no accurate CC50): > 5; EC50 [10, 15]: 12 ± 6.4 µM; EC50 [10, 16]: 20.2 µM and 13.6 µM and 5.65 µM and 8.46 µM; EC50 ([11]; Hepatitis C virus, Huh7.5, read-out: Jc1-NLuc EC50, mean, Huh7.5, treated 4 to 48 h.p.e., mean ± SD of three experiments): 17.3 ± 8.1 µM; EC50 ([11]; read-out: Jc1-NLuc EC50, individual experiment, Huh7.5, 48 h.p.e., three biological replicates): 24.4 µM and 18.9 µM and 8.54 µM; NS5A relative to DMSO control, western blot ([12]; 160 at 25 μM): comparable reduction in NS5A; EC50 ([13]; Hepatitis C virus, read-out: ff Luc EC50, SGR-feo-NS2-5B(JFH-1) stable cells, Huh7.5, 48 h, one representative experiment): 43.4 µM; EC50 ([13]; read-out: ff Luc EC50, SGR-feo-NS2-5B(JFH-1) stable cells, one representative experiment): 43.4 µM

Q: Which melting point does the source give for `O=C(C1CCCCC1)N1CCC2(C=Cc3ccccc32)CC1` [160–2, 1’-[(Cyclohexyl)carbonyl]-spiro[indene-1,4’-piperidine]] here?
A: The melting point was 134 to 135 °C.

Q: And the EC50 [8, 14]?
A: The EC50 was 68.4 ± 5.6 µM.

Q: With `CC1(C(=O)N2CCC3(C=Cc4ccccc43)CC2)CCCCC1` [160–1, 1-[(1-Methylcyclohexyl)carbonyl]-spiro[indene-1,4’-piperidine]] as the molecule, how does the EC50 [8, 14] read?
A: Its EC50 is 43 ± 0.5 µM.

Q: With `CCC[C@H](NC(=O)[C@@H]1[C@H]2CCC[C@H]2CN1C(=O)[C@@H](NC(=O)[C@@H](NC(=O)c1cnccn1)C1CCCCC1)C(C)(C)C)C(=O)C(=O)NC1CC1` [Telaprevir, reference compound] as the molecule, how does the CC50 [6] read?
A: The CC50 was greater than 31.6 µM.

Q: And the CC50 at 48 h [7]?
A: The CC50 at 48 h was greater than 31.6 µM.

Q: And the EC50 ([10]; Hepatitis C virus, Huh7.5, 48 h, transient SGR-luc-NS2-5B(JFH-1), Huh7.5, 48 h.p.e., single experiments in duplicate, read-out: NS2-5B SGR EC50, individual experiment)?
A: Its EC50 is 0.206 µM.

Q: What about the EC50 [10, 15] of the same molecule?
A: The EC50 was 0.176 ± 0.023 µM.

Q: What about the “luciferase activity time course” value ([10]; Telaprevir at 100 nM, compared with 160 at 25 μM) of the same molecule?
A: Its value is “comparable profile”.

Q: What about the EC50 [10, 16] of the same molecule?
A: Its EC50 is 0.146 µM.

Q: What about the “NS5A relative to DMSO control, western blot” value ([12]; Telaprevir at 100 nM) of the same molecule?
A: Its value is “comparable reduction in NS5A”.

From paper PMC4678293, “Identification of a lead like inhibitor of the hepatitis C virus non-structural NS2 autoprotease” (Antiviral Research, 2015)
